# Reference: ChEMBL document CHEMBL3885861, “Open TG-GATES”
# Species: Rattus norvegicus
# Assay: Open TG-GATES - Regimen: Daily Repeat
# Format: toxicity, organism-based, Sprague-Dawley
# Design: regimen Daily Repeat, gender Male, age 6 weeks
# Conditions: in vivo, po, route gavage; for APTT / Bas / Eos / Fbg / Ht / Lym / MCHC / MCV / Mono / PT / Plat / RBC / Ret / WBC: tissue Blood; for KIDNEY_L / KIDNEY_R / KIDNEY_TOTAL: tissue Kidney; for LIVER: tissue Liver; for ALP / ALT / AST / BUN / CRE / Ca / Cl / DBIL / IP / LDH / Na / PL / RALB / TBIL / TC / TG / TP / gamma-GTP: tissue Plasma
# [1] = 120 mg/kg, 72 h, dose level Middle, time 3 day
# [2] = 120 mg/kg, […], dose level Middle, time 7 day
# [3] = 120 mg/kg, […], dose level Middle, time 14 day
# [4] = 120 mg/kg, […], dose level Middle, time 28 day
# [5] = 400 mg/kg, 72 h, dose level High, time 3 day
# [6] = 400 mg/kg, […], dose level High, time 7 day
# [7] = 400 mg/kg, […], dose level High, time 14 day
# [8] = 400 mg/kg, […], dose level High, time 28 day
smiles,measurement,setting,value
CC(C)N(CCC(C(N)=O)(c1ccccc1)c1ccccn1)C(C)C (stereo not given) [DISOPYRAMIDE],APTT,[1],20.4 s
same,Bas,[1],0%
same,Eos,[1],1%
same,Fbg,[1],319.6 mg/dL
same,Ht,[1],41.1%
same,Lym,[1],78.4%
same,MCHC,[1],32.2%
same,MCV,[1],62.6 fL
same,Mono,[1],2.6%
same,PT,[1],15.5 s
same,Plat,[1],125 x10_4/uL
same,RBC,[1],657.8 x10_4/ul
same,Ret,[1],5.3%
same,WBC,[1],107.5 x10_2/uL
same,KIDNEY_L,[1],1 g
same,KIDNEY_R,[1],1 g
same,KIDNEY_TOTAL,[1],2 g
same,LIVER,[1],10.6 g
same,ALP,[1],1634.4 IU/L
same,ALT,[1],52.4 IU/L
same,AST,[1],74 IU/L
same,BUN,[1],15.6 mg/dL
same,CRE,[1],0.2 mg/dL
same,Ca,[1],10.8 mg/dL
same,Cl,[1],106.6 meq/L
same,DBIL,[1],0 mg/dL
same,IP,[1],7.7 mg/dL
same,LDH,[1],174.6 IU/L
same,Na,[1],142.8 meq/L
same,PL,[1],151.2 mg/dL
same,RALB,[1],2.9 g/dL
same,TBIL,[1],0 mg/dL
same,TC,[1],79.2 mg/dL
same,TG,[1],111.8 mg/dL
same,TP,[1],5.4 g/dL
same,gamma-GTP,[1],1.6 IU/L
same,TERMINAL_BW,[2],247.4 g
same,TERMINAL_BW,[3],313.2 g
same,TERMINAL_BW,[4],369.7 g
same,APTT,[2],21.5 s
same,Bas,[2],0%
same,Eos,[2],1%
same,Fbg,[2],327.2 mg/dL
same,Ht,[2],41%
same,Lym,[2],82%
same,MCHC,[2],32.6%
same,MCV,[2],59.6 fL
same,Mono,[2],1.8%
same,PT,[2],15.8 s
same,Plat,[2],116.6 x10_4/uL
same,RBC,[2],688.8 x10_4/ul
same,Ret,[2],5.7%
same,WBC,[2],102 x10_2/uL
same,APTT,[3],23.1 s
same,Bas,[3],0%
same,Eos,[3],0.8%
same,Fbg,[3],331.4 mg/dL
same,Ht,[3],41.2%
same,Lym,[3],79.8%
same,MCHC,[3],32.5%
same,MCV,[3],58.9 fL
same,Mono,[3],2.4%
same,PT,[3],15.5 s
same,Plat,[3],117.3 x10_4/uL
same,RBC,[3],700.2 x10_4/ul
same,Ret,[3],4.5%
same,WBC,[3],125.1 x10_2/uL
same,APTT,[4],24.7 s
same,Bas,[4],0%
same,Eos,[4],1%
same,Fbg,[4],323.2 mg/dL
same,Ht,[4],42.5%
same,Lym,[4],79.2%
same,MCHC,[4],33.7%
same,MCV,[4],55.5 fL
same,Mono,[4],2.4%
same,PT,[4],15.2 s
same,Plat,[4],103.8 x10_4/uL
same,RBC,[4],768.2 x10_4/ul
same,Ret,[4],2.6%
same,WBC,[4],105.7 x10_2/uL
same,KIDNEY_L,[2],1.1 g
same,KIDNEY_R,[2],1.1 g
same,KIDNEY_TOTAL,[2],2.2 g
same,KIDNEY_L,[3],1.2 g
same,KIDNEY_R,[3],1.3 g
same,KIDNEY_TOTAL,[3],2.5 g
same,KIDNEY_L,[4],1.4 g
same,KIDNEY_R,[4],1.5 g
same,KIDNEY_TOTAL,[4],2.9 g
same,LIVER,[2],11.4 g
same,LIVER,[3],14.2 g
same,LIVER,[4],15.6 g
same,ALP,[2],1449.8 IU/L
same,ALT,[2],48.2 IU/L
same,AST,[2],77.4 IU/L
same,BUN,[2],16.4 mg/dL
same,CRE,[2],0.2 mg/dL
same,Ca,[2],10.6 mg/dL
same,Cl,[2],106.2 meq/L
same,DBIL,[2],0 mg/dL
same,IP,[2],7.5 mg/dL
same,LDH,[2],167.8 IU/L
same,Na,[2],141.6 meq/L
same,PL,[2],145 mg/dL
same,RALB,[2],3 g/dL
same,TBIL,[2],0 mg/dL
same,TC,[2],75.8 mg/dL
same,TG,[2],107.8 mg/dL
same,TP,[2],5.5 g/dL
same,gamma-GTP,[2],1.4 IU/L
same,ALP,[3],1779.4 IU/L
same,ALT,[3],41.4 IU/L
same,AST,[3],64.8 IU/L
same,BUN,[3],15.6 mg/dL
same,CRE,[3],0.1 mg/dL
same,Ca,[3],10.6 mg/dL
same,Cl,[3],105.6 meq/L
same,DBIL,[3],0 mg/dL
same,IP,[3],7.1 mg/dL
same,LDH,[3],139.4 IU/L
same,Na,[3],142.6 meq/L
same,PL,[3],146.6 mg/dL
same,RALB,[3],3.1 g/dL
same,TBIL,[3],0.004 mg/dL
same,TC,[3],66 mg/dL
same,TG,[3],194 mg/dL
same,TP,[3],5.8 g/dL
same,gamma-GTP,[3],2 IU/L
same,ALP,[4],1162.8 IU/L
same,ALT,[4],55 IU/L
same,AST,[4],85.2 IU/L
same,BUN,[4],17 mg/dL
same,CRE,[4],0.2 mg/dL
same,Ca,[4],10.7 mg/dL
same,Cl,[4],106.4 meq/L
same,DBIL,[4],0 mg/dL
same,IP,[4],6.7 mg/dL
same,LDH,[4],190.2 IU/L
same,Na,[4],140.6 meq/L
same,PL,[4],151 mg/dL
same,RALB,[4],2.9 g/dL
same,TBIL,[4],0.012 mg/dL
same,TC,[4],79.6 mg/dL
same,TG,[4],112.4 mg/dL
same,TP,[4],5.9 g/dL
same,gamma-GTP,[4],2.2 IU/L
same,TERMINAL_BW,[5],214.9 g
same,APTT,[5],22.4 s
same,Bas,[5],0%
same,Eos,[5],0.8%
same,Fbg,[5],351.2 mg/dL
same,Ht,[5],42.4%
same,Lym,[5],73.2%
same,MCHC,[5],32.4%
same,MCV,[5],62.3 fL
same,Mono,[5],2%
same,PT,[5],15.6 s
same,Plat,[5],129.4 x10_4/uL
same,RBC,[5],681.2 x10_4/ul
same,Ret,[5],3.3%
same,WBC,[5],80.5 x10_2/uL
same,KIDNEY_L,[5],0.9 g
same,KIDNEY_R,[5],1 g
same,KIDNEY_TOTAL,[5],1.9 g
same,LIVER,[5],9.5 g
same,ALP,[5],1597.6 IU/L
same,ALT,[5],40.4 IU/L
same,AST,[5],70.2 IU/L
same,BUN,[5],12.8 mg/dL
same,CRE,[5],0.2 mg/dL
same,Ca,[5],10.8 mg/dL
same,Cl,[5],107.2 meq/L
same,DBIL,[5],0 mg/dL
same,IP,[5],7.4 mg/dL
same,LDH,[5],182.6 IU/L
same,Na,[5],143 meq/L
same,PL,[5],137.8 mg/dL
same,RALB,[5],2.9 g/dL
same,TBIL,[5],0 mg/dL
same,TC,[5],74.4 mg/dL
same,TG,[5],83.6 mg/dL
same,TP,[5],5.5 g/dL
same,gamma-GTP,[5],1.4 IU/L
same,TERMINAL_BW,[6],229.8 g
same,TERMINAL_BW,[7],278.8 g
same,TERMINAL_BW,[8],316.5 g
same,APTT,[6],23.9 s
same,Bas,[6],0%
same,Eos,[6],1.2%
same,Fbg,[6],346.8 mg/dL
same,Ht,[6],41.6%
same,Lym,[6],74.4%
same,MCHC,[6],33.3%
same,MCV,[6],60.2 fL
same,Mono,[6],3%
same,PT,[6],15.7 s
same,Plat,[6],112.7 x10_4/uL
same,RBC,[6],691.2 x10_4/ul
same,Ret,[6],4.2%
same,WBC,[6],123.8 x10_2/uL
same,APTT,[7],25.3 s
same,Bas,[7],0%
same,Eos,[7],1%
same,Fbg,[7],316.4 mg/dL
same,Ht,[7],41.7%
same,Lym,[7],79.4%
same,MCHC,[7],32.7%
same,MCV,[7],58.7 fL
same,Mono,[7],1.8%
same,PT,[7],15.2 s
same,Plat,[7],102.3 x10_4/uL
same,RBC,[7],710.4 x10_4/ul
same,Ret,[7],4.4%
same,WBC,[7],103 x10_2/uL
same,APTT,[8],26 s
same,Bas,[8],0%
same,Eos,[8],1.2%
same,Fbg,[8],345.5 mg/dL
same,Ht,[8],44.9%
same,Lym,[8],79%
same,MCHC,[8],33.7%
same,MCV,[8],55.6 fL
same,Mono,[8],2.5%
same,PT,[8],15.3 s
same,Plat,[8],98.6 x10_4/uL
same,RBC,[8],808.8 x10_4/ul
same,Ret,[8],2.4%
same,WBC,[8],105 x10_2/uL
same,KIDNEY_L,[6],1 g
same,KIDNEY_R,[6],1 g
same,KIDNEY_TOTAL,[6],2 g
same,KIDNEY_L,[7],1.1 g
same,KIDNEY_R,[7],1.2 g
same,KIDNEY_TOTAL,[7],2.3 g
same,KIDNEY_L,[8],1.2 g
same,KIDNEY_R,[8],1.3 g
same,KIDNEY_TOTAL,[8],2.5 g
same,LIVER,[6],11 g
same,LIVER,[7],12.8 g
same,LIVER,[8],13.4 g
same,ALP,[6],1394 IU/L
same,ALT,[6],45 IU/L
same,AST,[6],67.2 IU/L
same,BUN,[6],14.8 mg/dL
same,CRE,[6],0.2 mg/dL
same,Ca,[6],10.8 mg/dL
same,Cl,[6],105.4 meq/L
same,DBIL,[6],0 mg/dL
same,IP,[6],8 mg/dL
same,LDH,[6],160.8 IU/L
same,Na,[6],141.6 meq/L
same,PL,[6],170.6 mg/dL
same,RALB,[6],2.9 g/dL
same,TBIL,[6],0 mg/dL
same,TC,[6],80.6 mg/dL
same,TG,[6],195.4 mg/dL
same,TP,[6],5.4 g/dL
same,gamma-GTP,[6],1.4 IU/L
same,ALP,[7],1544.2 IU/L
same,ALT,[7],44 IU/L
same,AST,[7],68 IU/L
same,BUN,[7],15.2 mg/dL
same,CRE,[7],0.1 mg/dL
same,Ca,[7],10.6 mg/dL
same,Cl,[7],104.2 meq/L
same,DBIL,[7],0 mg/dL
same,IP,[7],7.9 mg/dL
same,LDH,[7],149.6 IU/L
same,Na,[7],143.2 meq/L
same,PL,[7],149.6 mg/dL
same,RALB,[7],3 g/dL
same,TBIL,[7],0.002 mg/dL
same,TC,[7],74.4 mg/dL
same,TG,[7],147.2 mg/dL
same,TP,[7],5.6 g/dL
same,gamma-GTP,[7],1.6 IU/L
same,ALP,[8],1456 IU/L
same,ALT,[8],66 IU/L
same,AST,[8],98.2 IU/L
same,BUN,[8],17.5 mg/dL
same,CRE,[8],0.2 mg/dL
same,Ca,[8],10.4 mg/dL
same,Cl,[8],106 meq/L
same,DBIL,[8],0 mg/dL
same,IP,[8],6.6 mg/dL
same,LDH,[8],170.5 IU/L
same,Na,[8],141.2 meq/L
same,PL,[8],152.5 mg/dL
same,RALB,[8],3 g/dL
same,TBIL,[8],0 mg/dL
same,TC,[8],75.5 mg/dL
same,TG,[8],165.2 mg/dL
same,TP,[8],5.8 g/dL
same,gamma-GTP,[8],2 IU/L
